Assay [1] relates to A549. The experiment in a line: Cytotoxicity against human A549 cells assessed as reduction in cell viability after 72 hrs by MTT assay. It counts as functional, cell-based. The settings on record: A549, 72 h. In general terms: Formazan colour is commonly taken as a measure of viable cells.
Assay [2] relates to HCT-116. The experiment in a line: Cytotoxicity against human HCT116 cells assessed as reduction in cell viability after 72 hrs by MTT assay. In kind it is functional, cell-based. The note with it: HCT-116, 72 h.
Assay [3] has as its system PC-3. Kind of assay: Cytotoxicity against human PC3 cells assessed as reduction in cell viability after 72 hrs by MTT assay. It counts as functional, cell-based. The note with it: PC-3, 72 h.
For assay [4], the target named is Serine/threonine-protein kinase PLK1 (Homo sapiens) (UniProt P53350). Kind of assay: Inhibition of recombinant human N-terminal His6-tagged PLK1 expressed in baculovirus infected Sf21 insect cells at 1 uM using FAM-labelled peptide as substrate preincubated for 10 mins followed by substrate addition measured after 1 hr relative to control.
Serine/threonine-protein kinase PLK1 (Homo sapiens), sequence (P53350 whole entry): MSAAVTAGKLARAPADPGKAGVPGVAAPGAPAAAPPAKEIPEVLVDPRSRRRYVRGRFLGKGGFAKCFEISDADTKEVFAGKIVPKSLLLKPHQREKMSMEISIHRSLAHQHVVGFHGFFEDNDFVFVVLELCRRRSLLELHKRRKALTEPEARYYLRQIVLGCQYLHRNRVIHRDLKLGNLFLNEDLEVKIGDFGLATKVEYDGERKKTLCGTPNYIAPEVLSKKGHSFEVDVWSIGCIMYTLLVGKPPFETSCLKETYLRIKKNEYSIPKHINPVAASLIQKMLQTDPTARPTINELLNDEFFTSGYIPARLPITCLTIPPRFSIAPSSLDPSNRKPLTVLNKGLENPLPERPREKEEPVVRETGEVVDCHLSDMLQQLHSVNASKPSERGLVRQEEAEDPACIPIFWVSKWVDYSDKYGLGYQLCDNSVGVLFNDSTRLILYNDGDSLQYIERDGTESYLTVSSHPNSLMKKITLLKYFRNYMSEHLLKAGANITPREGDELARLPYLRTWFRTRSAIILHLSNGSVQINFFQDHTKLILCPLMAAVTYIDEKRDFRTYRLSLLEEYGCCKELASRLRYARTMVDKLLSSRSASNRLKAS
Assay [5] has as its system A549. The experiment in a line: Induction of apoptosis in human A549 cells assessed as late apoptotic cells at 1 uM after 24 hrs by acridine orange/ethidium bromide staining-based fluorescence microscopic method. It counts as functional, cell-based.
The test system of assay [6] is A549. Kind of assay: Induction of apoptosis in human A549 cells assessed as late apoptotic cells at 5 uM after 24 hrs by acridine orange/ethidium bromide staining-based fluorescence microscopic method. In kind it is functional, cell-based.
Assay [7] deals with MCF7. The experiment in a line: cells. The note with it: Homo sapiens, MCF7, 72 h.
Description: Cytotoxicity against human MCF7 cells assessed as reduction in cell viability after 72 hrs by MTT assay
Assay [8] concerns MDA-MB-231. Kind of assay: cells. The settings on record: Homo sapiens, MDA-MB-231, 72 h.
Description: Cytotoxicity against human MDA-MB-231 cells assessed as reduction in cell viability after 72 hrs by MTT assay
Assay [9] relates to A549. The experiment in a line: Antimigratory activity in human A549 cells assessed as inhibition of wound healing up to 36 hrs by fluorescence microscopic method. It counts as functional, cell-based.
Assay [10] has as its system A549. Kind of assay: Antimigratory activity in human A549 cells assessed as wound healing at 0.2 uM after 12 hrs by fluorescence microscopic method (reference value: 26.2%). In kind it is functional.
For assay [11], the system named is A549. Kind of assay: Antimigratory activity in human A549 cells assessed as wound healing at 1 uM after 12 hrs by fluorescence microscopic method (reference value: 26.2%). In kind it is functional.
For assay [12], the system named is A549. Kind of assay: Antimigratory activity in human A549 cells assessed as wound healing at 0.2 uM after 24 hrs by fluorescence microscopic method (reference value: 58.5%). It counts as functional.
For assay [13], the system named is A549. Kind of assay: Antimigratory activity in human A549 cells assessed as wound healing at 1 uM after 24 hrs by fluorescence microscopic method (reference value: 58.5%). In kind it is functional.
The test system of assay [14] is A549. The experiment in a line: Antimigratory activity in human A549 cells assessed as wound healing at 0.2 uM after 36 hrs by fluorescence microscopic method (reference value: 100%). In kind it is functional.
Assay [15] concerns A549. The experiment in a line: Antimigratory activity in human A549 cells assessed as wound healing at 1 uM after 36 hrs by fluorescence microscopic method (reference value: 100%). In kind it is functional.
Assay [16] concerns A549. Kind of assay: Cell cycle arrest in human A549 cells assessed as accumulation at G1 phase at 0.2 uM after 24 hrs by propidium iodide staining based flow cytometric analysis (reference value: 63.34%). It counts as functional. For orientation: A flow cytometer gives signals particle by particle.
The subject of assay [17] is A549. The experiment in a line: Cell cycle arrest in human A549 cells assessed as accumulation at G1 phase at 1 uM after 24 hrs by propidium iodide staining based flow cytometric analysis (reference value: 63.34%). In kind it is functional.
For assay [18], the system named is A549. Kind of assay: Cell cycle arrest in human A549 cells assessed as accumulation at G1 phase at 5 uM after 24 hrs by propidium iodide staining based flow cytometric analysis (reference value: 63.34%). In kind it is functional.
For assay [19], the system named is A549. The experiment in a line: Cell cycle arrest in human A549 cells assessed as accumulation at S phase at 0.2 uM after 24 hrs by propidium iodide staining based flow cytometric analysis (reference value: 29.93%). It counts as functional.
The test system of assay [20] is A549. Kind of assay: Cell cycle arrest in human A549 cells assessed as accumulation at S phase at 1 uM after 24 hrs by propidium iodide staining based flow cytometric analysis (reference value: 29.93%). In kind it is functional.
In assay [21] the test system is A549. The experiment in a line: Cell cycle arrest in human A549 cells assessed as accumulation at S phase at 5 uM after 24 hrs by propidium iodide staining based flow cytometric analysis (reference value: 29.93%). In kind it is functional.
The subject of assay [22] is A549. Kind of assay: Cell cycle arrest in human A549 cells assessed as accumulation at G2 phase at 0.2 uM after 24 hrs by propidium iodide staining based flow cytometric analysis (reference value: 6.73%). It counts as functional.
In assay [23] the test system is A549. The experiment in a line: Cell cycle arrest in human A549 cells assessed as accumulation at G2 phase at 1 uM after 24 hrs by propidium iodide staining based flow cytometric analysis (reference value: 6.73%). In kind it is functional.
Assay [24] has as its system A549. Kind of assay: Cell cycle arrest in human A549 cells assessed as accumulation at G2 phase at 5 uM after 24 hrs by propidium iodide staining based flow cytometric analysis (reference value: 6.73%). In kind it is functional.

Active and inactive are the calls of the source. The calls are words filed in the database; no cut-off is given here. A value given as a limit tells only on which side of the number the result lay.

In general, IC50 refers to the point on the concentration scale where inhibition reaches its midpoint. By inhibition is commonly meant the percentage by which the read-out fell short of the control. For `CC1CN(c2ccc(Nc3ncc4c(n3)n(C3CCCC3)c(=O)c3nnnn34)cc2)CC(C)N1` (stereo not given), the IC50 in assay [1] turned out to be 440 nM; in [2], 600 nM; in assay [3], 1000 nM; in assay [7], 500 nM; in [8], 1600 nM. Besides, in assay [4], the inhibition amounted to 77.9%. For the same compound, the outcome in assay [5] and in assay [6] was Active.
For the compound `Cc1nnc2c(=O)n(C3CCCC3)c3nc(Nc4ccc(N5CCN(C6CCCC6)CC5)cc4)ncc3n12`, the IC50 was 11400 nM in [1]; greater than 50000 nM in assay [2]; greater than 50000 nM in assay [3]; greater than 50000 nM in assay [7]; 9120 nM in assay [8]. In addition, the inhibition in assay [4] came to 31.6%.
For `CN1CCN(c2ccc(Nc3ncc4c(n3)n(C3CCCC3)c(=O)c3nnnn34)cc2)CC1`, the IC50 was 1250 nM in assay [1]; 19100 nM in assay [2]; 3800 nM in assay [3]; greater than 50000 nM in assay [7]; 15800 nM in assay [8]. Further, the inhibition in [4] amounted to 19.3%.
Take `Cc1nnc2c(=O)n(C3CCCC3)c3nc(Nc4ccc(N5CC(C)NC(C)C5)cc4)ncc3n12` (stereo not given): the IC50 was 160 nM in assay [1]; 300 nM in assay [2]; 510 nM in assay [3]; 300 nM in [7]; 700 nM in assay [8]. Further, the results for the inhibition in [4] and in assay [9] were 86.4% and “Dose-dependent effect”, respectively. The result in [5] and in [6] was Active. For the same compound, the Activity is recorded as 25.1% in assay [10]; 24.4% in assay [11]; 33.7% in assay [12]; 27.8% in [13]; 51.4% in assay [14]; 43.1% in assay [15]. In addition, the Activity in [16] is reported as 74.99%; in assay [17], 79.82%; in assay [18] it was 82.32%; in [19], 20.46%; in assay [20], 14.54%; in [21], 13.37%. Moreover, the figures for the Activity in assay [22], in [23] and in assay [24] were 4.55%, 5.64% and 4.32%, respectively.
Consider `Cc1nnc2c(=O)n(C3CCCC3)c3nc(Nc4ccc(N5CCN(CCO)CC5)cc4)ncc3n12`, for which the IC50 is 5460 nM in assay [1]; 7610 nM in [2]; 8440 nM in assay [3]; 750 nM in assay [7]; 3350 nM in assay [8]. The inhibition in [4] is 28.2%.
For `CCN1CCN(c2ccc(Nc3ncc4c(n3)n(C3CCCC3)c(=O)c3nnc(C)n34)cc2)CC1`, the IC50 was found to be 680 nM in assay [1]; 9610 nM in assay [2]; 5000 nM in [3]; 510 nM in assay [7]; 2250 nM in assay [8]. For the same compound, in assay [4], the inhibition came to 44.7%.
`CC1CN(c2ccc(Nc3ncc4c(n3)n(C3CCCC3)c(=O)c3nncn34)cc2)CC(C)N1` (stereo not given): the IC50 was found to be 890 nM in assay [1]; 4400 nM in assay [2]; 3260 nM in assay [3]; 410 nM in assay [7]; 4800 nM in assay [8]. The inhibition in [4] turned out to be 72.1%.
As to `CCN1CCN(c2ccc(Nc3ncc4c(n3)n(C3CCCC3)c(=O)c3nncn34)cc2)CC1`, the IC50 in assay [1] was 1070 nM; in assay [2] it was 7500 nM; in assay [3], 3480 nM; in assay [7] it was 980 nM; in [8], greater than 50000 nM. Besides, the inhibition in assay [4] turned out to be 27.4%.
Turning to `CC[C@@H]1C(=O)N(C)c2cnc(Nc3ccc(C(=O)N[C@H]4CC[C@H](N5CCN(CC6CC6)CC5)CC4)cc3OC)nc2N1C(C)C` [VOLASERTIB], the IC50 was 80 nM in assay [1]; 110 nM in assay [2]; 90 nM in assay [3]; 90 nM in assay [7]; 110 nM in assay [8]. Besides, the inhibition in assay [4] was determined as 97.7%.
With `CN1CCN(c2ccc(Nc3ncc4c(n3)n(C3CCCC3)c(=O)c3nncn34)cc2)CC1`, the IC50 is 6960 nM in assay [1]; 8000 nM in assay [2]; 26500 nM in assay [3]; greater than 50000 nM in assay [7]; greater than 50000 nM in [8]. The inhibition in assay [4] came to 44.2%.

Source of the values: ChEMBL document CHEMBL4411288, “Design, synthesis and biological evaluation of novel 7-amino-[1,2,4]triazolo[4,3-f]pteridinone, and 7-aminotetrazolo[1,5-f]pteridinone derivative as potent antitumor agents” (Eur J Med Chem, 2019).
